Results from patent US8426405B2, “Thiazopyrimidinones and uses thereof” (priority 2008, dated 2013).

What was measured:
HIV integrase wild type = target: T1, HIV integrase wild type (Human immunodeficiency virus type 1 group M subtype B, UniProt P04585); assay: Strand transfer assay (enzyme assay), WT; assay type: biochemical, HIV-1
T1 construct: The integrase coding region was then subject to PCR and cloned into a bacterial expression vector; made in house
Excerpt: (§1) HIV integrase was mutated within a shuttle vector (pGEM) containing the majority of the HIV-1 gag and pol sequence using site directed mutagenesis to generate integrase sequences that have been published as conferring resistance to published integrase inhibitors. These include, but are not limited to, mutations such as Q148K. The integrase coding region was then subject to PCR and cloned into a bacterial expression vector. The specific introduction of desired mutation(s) was confirmed by sequence analysis. Proteins were expressed, purified and used in strand transfer assays.
(§2) A strand transfer assay procedure similar to that published (Ovenden et al. Phytochemistry. 2004 December; 65(24):3255-9.) is used. Briefly, 400 ng of the enzyme, wild type or drug resistant mutant, is mixed with the compound to be tested and incubated with 30 nM substrate DNA. The substrate DNA is designed to mimic HIV DNA termini that has undergone 3′end processing, and consists of the annealed U5 LTR sequence oligonucleotides tagged with Digoxigenin (DIG; 5′-[…]-DIG-3′) or biotin (5′-Bio-[…]-3′) so that each substrate has either a DIG or Bio tag on opposite strands. Reactions are carried out for 1 hr at 37° C. Products generated as a result of strand transfer activity are bound to streptavidin plates and detected using anti-DIG-alkaline phosphatase conjugate and p-nitro phenyl phosphate substrate.

HIV integrase E92Q/N155H = target: T2, HIV integrase E92Q/N155H (Human immunodeficiency virus type 1 group M subtype B, UniProt P04585, E1239Q/N1302H); assay: Strand transfer assay (enzyme assay), E92Q/N155H; assay type: biochemical, HIV-1
T2 construct: The integrase coding region was then subject to PCR and cloned into a bacterial expression vector; made in house
Excerpt: as §1, §2

[1] = target: T3, HIV integrase G140S/Q148H (Human immunodeficiency virus type 1 group M subtype B, UniProt P04585, G1287S/Q1295H); assay: Strand transfer assay (enzyme assay), G140S/Q148H; assay type: biochemical, HIV-1
T3 construct: The integrase coding region was then subject to PCR and cloned into a bacterial expression vector; made in house
Excerpt: as §1, §2

HIV WT = assay: Phenosense (PhenoScreen) assay, WT; assay type: cell-based; conditions: wild type HIV, luciferase 48 h after infection
Excerpt: (§3) Monogram Bioscience' PhenoScreen assay allows the evaluation of integrase inhibitors for activity against a variety of HIV variants. The assay uses virus generated from 2 DNA constructs; one containing the HIV LTR, gag and pol regions, as well as a luciferase reporter gene in place of the viral envelope genes, and a second DNA construct containing the amphotrophic murine leukemia virus (A-MLV) envelope gene required to pseudotype virions and render them capable of entry into a target cell. Viruses generated using these constructs by transfection into a producer cell line such as 293T are capable of one-round of infection only. Successful integration events are directly proportional to the levels of luciferase expression 48 h after infection.
(§4) The viral variants chosen by Avexa Ltd to screen their in-house integration inhibitors against consist of mutations within the viral integrase enzyme known to confer resistance to a number of known integration inhibitors published in the literature. In particular, the viral variants containing the Q148H/G140S double mutation in integrase, and the N155H/E92Q double mutation in integrase, represent two of the more common viruses identified to arise in patients that are failing treatment with Isentress (Raltegravir, MK-0518).

[2] = system: HIV variant Y143R in integrase; assay: Phenosense (PhenoScreen) assay, Y143R; assay type: cell-based
Excerpt: as §3, §4

[3] = system: HIV variant N155H/E92Q double mutation in integrase; assay: Phenosense (PhenoScreen) assay, E92Q N155H; assay type: cell-based
Excerpt: as §3, §4

[4] = system: HIV variant Q148H/G140S double mutation in integrase; assay: Phenosense (PhenoScreen) assay, G140S Q148H; assay type: cell-based
Excerpt: as §3, §4

[5] = system: HIV variant T125K F121Y in integrase; assay: Phenosense (PhenoScreen) assay, T125K F121Y; assay type: cell-based
Excerpt: as §3, §4

[6] = system: HIV variant T661 S153Y in integrase; assay: Phenosense (PhenoScreen) assay, T661 S153Y; assay type: cell-based
Excerpt: as §3, §4

Cc1cn2c(=O)c(O)c(-c3ncc(Cc4ccc(Cl)cc4)s3)nc2s1
Enzyme WT (HIV integrase wild type): +++ (+++ indicates value between 0.001 μM and 1 μM)
Enzyme E92Q/N155H (HIV integrase E92Q/N155H): ++ (++ indicates value between 1 μM and 10 μM)
Enzyme G140S/Q148H [1]: + (+indicates value greater than 10 μM)

Cc1cn2c(=O)c(O)c(-c3ncc(Cc4ccc(F)cc4)s3)nc2s1
Enzyme E92Q/N155H (HIV integrase E92Q/N155H): +++ (+++ indicates value between 0.001 μM and 1 μM)

O=C(NCc1ccc(Cl)c(Cl)c1)c1nc2sc(CN3CCOCC3)cn2c(=O)c1O
Phenosense assay WT (HIV WT): +++ (+++ indicates value between 0.001 μM and 1 μM)
Phenosense assay Y143R [2]: +++ (+++ indicates value between 0.001 μM and 1 μM)
Phenosense assay E92Q N155H [3]: + (+indicates value greater than 10 μM)
Phenosense assay G140S Q148H [4]: + (+indicates value greater than 10 μM)
Phenosense assay T125K F121Y [5]: + (+indicates value greater than 10 μM)
Phenosense assay T661 S153Y [6]: + (+indicates value greater than 10 μM)
Enzyme WT (HIV integrase wild type): +++ (+++ indicates value between 0.001 μM and 1 μM)

Cc1cn2c(=O)c(O)c(-c3ncc(Cc4ccc(Cl)c(Cl)c4)s3)nc2s1
Enzyme WT (HIV integrase wild type): +++ (+++ indicates value between 0.001 μM and 1 μM)
Enzyme E92Q/N155H (HIV integrase E92Q/N155H): ++ (++ indicates value between 1 μM and 10 μM)
Enzyme G140S/Q148H [1]: +++ (+++ indicates value between 0.001 μM and 1 μM)

Cc1cn2c(=O)c(O)c(C(=O)NCc3ccc(F)cc3)nc2s1
Enzyme WT (HIV integrase wild type): ++ (++ indicates value between 1 μM and 10 μM)

CN1CCN(Cc2cn3c(=O)c(O)c(C(=O)NCc4ccc(Cl)c(Cl)c4)nc3s2)CC1
Phenosense assay WT (HIV WT): +++ (+++ indicates value between 0.001 μM and 1 μM)
Phenosense assay Y143R [2]: +++ (+++ indicates value between 0.001 μM and 1 μM)
Phenosense assay E92Q N155H [3]: + (+indicates value greater than 10 μM)
Phenosense assay G140S Q148H [4]: + (+indicates value greater than 10 μM)
Phenosense assay T125K F121Y [5]: + (+indicates value greater than 10 μM)
Phenosense assay T661 S153Y [6]: ++ (++ indicates value between 1 μM and 10 μM)
Enzyme WT (HIV integrase wild type): +++ (+++ indicates value between 0.001 μM and 1 μM)

CC(C)c1cn2c(=O)c(O)c(C(=O)NCc3ccc(Cl)c(Cl)c3)nc2s1
Phenosense assay WT (HIV WT): +++ (+++ indicates value between 0.001 μM and 1 μM)
Phenosense assay Y143R [2]: +++ (+++ indicates value between 0.001 μM and 1 μM)
Phenosense assay E92Q N155H [3]: + (+indicates value greater than 10 μM)
Phenosense assay G140S Q148H [4]: + (+indicates value greater than 10 μM)
Phenosense assay T125K F121Y [5]: + (+indicates value greater than 10 μM)
Phenosense assay T661 S153Y [6]: ++ (++ indicates value between 1 μM and 10 μM)
Enzyme WT (HIV integrase wild type): +++ (+++ indicates value between 0.001 μM and 1 μM)

Cc1cn2c(=O)c(O)c(C(=O)NCc3ccc(Cl)c(Cl)c3)nc2s1
Enzyme WT (HIV integrase wild type): +++ (+++ indicates value between 0.001 μM and 1 μM)

Cc1cn2c(=O)c(O)c(-c3ncc(Cc4ccc(F)c(Cl)c4)s3)nc2s1
Enzyme WT (HIV integrase wild type): +++ (+++ indicates value between 0.001 μM and 1 μM)
Enzyme E92Q/N155H (HIV integrase E92Q/N155H): ++ (++ indicates value between 1 μM and 10 μM)
Enzyme G140S/Q148H [1]: ++ (++ indicates value between 1 μM and 10 μM)

O=C(NCc1ccc(F)cc1)c1nc2sc(CN3CCOCC3)cn2c(=O)c1O
Phenosense assay WT (HIV WT): ++ (++ indicates value between 1 μM and 10 μM)
Phenosense assay Y143R [2]: ++ (++ indicates value between 1 μM and 10 μM)
Phenosense assay E92Q N155H [3]: + (+indicates value greater than 10 μM)
Phenosense assay G140S Q148H [4]: + (+indicates value greater than 10 μM)
Phenosense assay T125K F121Y [5]: + (+indicates value greater than 10 μM)
Phenosense assay T661 S153Y [6]: + (+indicates value greater than 10 μM)
Enzyme WT (HIV integrase wild type): ++ (++ indicates value between 1 μM and 10 μM)

Cc1csc2nc(C(=O)NCc3ccc(Cl)c(Cl)c3)c(O)c(=O)n12
Phenosense assay WT (HIV WT): +++ (+++ indicates value between 0.001 μM and 1 μM)
Phenosense assay Y143R [2]: +++ (+++ indicates value between 0.001 μM and 1 μM)
Phenosense assay E92Q N155H [3]: + (+indicates value greater than 10 μM)
Phenosense assay G140S Q148H [4]: + (+indicates value greater than 10 μM)
Phenosense assay T125K F121Y [5]: + (+indicates value greater than 10 μM)
Phenosense assay T661 S153Y [6]: + (+indicates value greater than 10 μM)
Enzyme WT (HIV integrase wild type): +++ (+++ indicates value between 0.001 μM and 1 μM)
